# Read-outs that look alike come from different tables or passages of the source.
# What was measured:
# [1] = system: HCMV recombinant mutant virus whose genome contains the prokaryotic beta-glucuronidase gene; test: microbe, parasite or virus in culture; assay type: cell-based, human cytomegalovirus; details: for IC50: Human betaherpesvirus 5, Fibroblast
# Source text: Microtiter plate assay. Ninety-six well plate cultures of human foreskin fibroblasts are infected in the presence of inhibitor compound with a HCMV recombinant mutant virus whose genome contains the prokaryotic beta-glucuronidase gene (Jefferson, R. A., S. M. Burgess, and D. Hirsh. 1986. Beta-glucuronidase from Escherichia coli as a gene fusion marker. Proc. Natl. Acad. Sci. USA 83:8447-8451) whose expression is controlled by a viral promoter. An example of such a virus is RV145 (Jones, T. R., V. P. Muzithras, and Y. Gluzman. 1991. Replacement mutagenesis of the human cytomegalovirus genome: US10 and US11 gene products are nonessential. J. Virol. 65:5860-5872). Since it is under the control of a viral promoter, beta-glucuronidase expression is an indirect indicator of growth and replication of HCMV in this assay. At 96 hours post-infection, the infected cell lysates are prepared (using 50mM sodium phosphate [pH7.0] containing 0.1% Triton X-100 and 0.1% sarkosyl) and assayed for beta-glucuronidase activity using a substrate for the enzyme which when cleaved yields either a product which can be measured colorimetrically in a spectrophotometer or fluorescently in a microfluorimeter. Examples of such substrates are p-nitrophenyl-beta-D-glucuronide and methylumbelliferylglucuronide, respectively. The presence of an antiviral compound is indicated by the reduced expression of the HCMV genome resident beta-glucuronidase gene, compared to the absence of inhibitor. […] Data from this assay generated using varying amounts of inhibitor compound is also used to estimate the IC50 of an inhibitor compound.
# VZV strain Ellen = test: VZV antiviral (ELISA) assay; assay type: cell-based
# Protocol: For the generation of stock VZV to be used in the assay, VZV strain Ellen (ATCC #VR-1367) is used to infect human foreskin fibroblast (HFF) cells at low multiplicity (less than 0.1) and incubated overnight at 37°C in 5% CO2. After the overnight incubation, the mixture of uninfected and VZV-infected HFF infected cells are then harvested and added to each well of 96-well plates (3.5x10^4 cells in 100 µl DMEM supplemented with 2% FBS) which contain test compound or the reference standard drug control (in 100µl DMEM supplemented with 2% FBS per well). These cells are incubated for three days at 37°C in 5% CO2, then fixed for ELISA assay. The primary antibody is murine anti-VZV glycoprotein II monoclonal antibody (Applied Biosystems, Inc. #13-145-100) and the secondary antibody is goat anti-mouse IgG linked to β-galactosidase. Thus the extent of viral replication is determined by assessing β-galactosidase activity by quantifying the generation of the 4-methyl umbelliferone fluorescent cleavage product after addition of the methyl umbelliferyl-β-D-galactoside (Sigma #M1633) substrate on a microfluorimeter (365nm for excitation and 450nm for emission). Antiviral activity (IC50) of the test compound is determined by comparing the flourescence obtained in absence of compound to that obtained in the presence of compound.
# [2] = read-out: IC50 ug/ml HCMV, HCMV, human foreskin fibroblasts
# [3] = Human alphaherpesvirus 3, HFF, read-out: IC50 (ug/ml) VZV, VZV strain Ellen, HFF cells, ELISA
# [4] = Human alphaherpesvirus 3, VZV strain Ellen, HFF cells, ELISA, read-out: IC50 (ug/ml) VZV
Structure (SMILES),"IC50 [1, 2] [µg/mL]",IC50 (VZV strain Ellen; [3]) [µg/mL],IC50 (VZV strain Ellen; [4]) [µg/mL],also measured
"O=C(Nc1ccc(NC(=S)Nc2cc(N3CCCC3)cc(C(F)(F)F)c2)cc1)c1ccccc1F [Example 566, 2-Fluoro-N-{4-[3-(3-pyrrolidin-1-yl-5-trifluoromethyl-phenyl)-thioureido]-phenyl}-benzamide]",> 0.5,2,,
"CN(C)c1cc(NC(=S)Nc2ccc(NC(=O)c3ccccc3F)cc2)cc(C(F)(F)F)c1 [Example 567, N-{4-[3-(3-Dimethylamino-5-trifluoromethyl-phenyl)-thioureido]-phenyl}-2-fluoro-benzamide]",,,2,IC50 ([1]; read-out: IC50 ug/ml HCMV): > 0.5 µg/mL
"O=C(Nc1ccc(NC(=S)Nc2cc(N3CCOCC3)cc(C(F)(F)F)c2)cc1)c1ccccc1F [Example 568, 2-Fluoro-N-{4-[3-(3-morpholin-4-yl-5-trifluoromethyl-phenyl)-thioureido]-phenyl}-benzamide]",> 0.5,2.3,,
"CN1CCN(c2cc(NC(=S)Nc3ccc(NC(=O)c4ccccc4F)cc3)cc(C(F)(F)F)c2)CC1 [Example 569, 2-Fluoro-N-(4-{3-[3-(4-methyl-piperazin-1-yl)-5-trifluoromethyl-phenyl]-thioureido}-phenyl)-benzamide]",> 0.5,3,,
"O=C(Nc1ccc(NC(=S)Nc2cc(N3CCCCC3)cc(C(F)(F)F)c2)cc1)c1ccccc1F [Example 570, 2-Fluoro-N-{4-[3-(3-piperidin-1-yl-5-trifluoromethyl-phenyl)-thioureido]-phenyl}-benzamide]",> 0.5,> 10,,
"O=C(Nc1ccc(NC(=S)NCCc2ccccc2)cc1)c1ccccc1F [Example 576, 2-Fluoro-N-[4-(3-phenethyl-thioureido)-phenyl]-benzamide]",,,8,IC50 ([1]; read-out: IC50 ug/ml HCMV): > 0.5 µg/mL
"CCC(C)Cc1cc(NC(=S)Nc2ccc(NC(=O)c3ccccc3F)cc2)cc(C(F)(F)F)c1 (stereo not shown) [Example 577, 2-Fluoro-N-(4-{3-[3-(2-methyl-butyl)-5-trifluoromethyl-phenyl]-thioureido}-phenyl)-benzamide]",,> 7.5,,
"CC(C)Cc1cc(NC(=S)Nc2ccc(NC(=O)c3ccccc3F)cc2)cc(C(F)(F)F)c1 [Example 578, 2-Fluoro-N-{4-[3-(3-isobutyl-5-trifluoromethyl-phenyl)-thioureido]-phenyl}-benzamide]",,> 10,,
"O=C(Nc1ccc(NC(=S)NCc2cc(F)cc(F)c2)cc1)c1ccccc1F [Example 580, N-{4-[3-(3,5-Difluoro-benzyl)-thioureido]-phenyl}-2-fluoro-benzamide]",,,> 10,
"O=C(Nc1ccc(NC(=S)NCc2cc(Cl)cc(Cl)c2)cc1)c1ccccc1F [Example 583, N-{4-[3-(3,5-Dichloro-benzyl)-thioureido]-phenyl}-2-fluoro-benzamide]",,10,,
"O=C(Nc1ccc(NC(=S)NCc2cc(F)cc(C(F)(F)F)c2)cc1)c1ccccc1F [Example 586, 2-Fluoro-N-{4-[3-(3-fluoro-5-trifluoromethyl-benzyl)-thioureido]-phenyl}-benzamide]",,,> 10,
"CN(C)c1ccc(CNC(=S)Nc2ccc(NC(=O)c3ccccc3F)cc2)cc1C(F)(F)F [Example 610, N-{4-[3-(4-Dimethylamino-3-trifluoromethyl-benzyl)-thioureido]-phenyl}-2-fluoro-benzamide]",> 0.5,> 10,,
"O=C(Nc1ccc(NC(=S)NCc2ccc(N3CCCCC3)c(C(F)(F)F)c2)cc1)c1ccccc1F [Example 616, 2-Fluoro-N-{4-[3-(4-piperidin-1-yl-3-trifluoromethyl-benzyl)-thioureido]-phenyl}-benzamide]",,> 10,,
"O=C(Nc1ccc(NC(=S)NCc2ccc(F)c(C(F)(F)F)c2)cc1)c1ccccc1F [Example 623, 2-Fluoro-N-{4-[3-(4-fluoro-3-trifluoromethyl-benzyl)-thioureido]-phenyl}-benzamide]",,,> 10,
"O=C(Nc1ccc(NC(=S)NCCOc2ccccc2)cc1)c1ccccc1F [Example 625, 2-Fluoro-N-{4-[3-(2-phenoxy-ethyl)-thioureido]-phenyl}-benzamide]",,,4,
"CC(NC(=S)Nc1ccc(NC(=O)c2ccccc2I)cc1)c1ccc(F)cc1 (stereo not shown) [Example 812, N-(4-{3-[1-(4-Fluoro-phenyl)-ethyl]-thioureido}-phenyl)-2-iodo-benzamide]",,,3.4,
"CN1CCC(N(C)c2ccc(NC(=S)Nc3ccc(NC(=O)c4ccccc4F)cc3)cc2Cl)CC1 [Example 855, N-[4-(3-{3-Chloro-4-[methyl-(1-methyl-piperidin-4-yl)-amino]-phenyl}-thioureido)-phenyl]-2-fluoro-benzamide]",,,> 10,"IC50 ug/ml HCMV ([1]; HCMV, human foreskin fibroblasts): 0.7 µg/mL; inhibition at 10 µg/mL (VZV strain Ellen; Human alphaherpesvirus 3, read-out: % inhibition 10 ug/ml VZV, 10 ug/ml, VZV strain Ellen, HFF cells, ELISA): 52%"
"CC(NC(=S)Nc1ccc(NC(=O)c2cc3ccccc3cn2)cc1)c1ccc(F)cc1 (stereo not shown) [Example 984, Isoquinoline-3-carboxylic acid (4-{3-[1-(4-fluoro-phenyl)-ethyl]-thioureido}-phenyl)-amide]",1.5,0.08,,
"CC(NC(=S)Nc1ccc(NC(=O)c2ccccc2C(F)(F)F)cc1)c1ccc(F)cc1 (stereo not shown) [Example 992, N-(4-{3-[1-(4-Fluoro-phenyl)-ethyl]-thioureido}-phenyl)-2-trifluoromethyl-benzamide]",,,1.2,IC50 ([1]; read-out: IC50 ug/ml HCMV): 4 µg/mL
"CC(NC(=S)Nc1ccc(NC(=O)c2ccccc2C#N)cc1)c1ccc(F)cc1 (stereo not shown) [Example 993, 2-Cyano-N-(4-{3-[1-(4-fluoro-phenyl)-ethyl]-thioureido}-phenyl)-benzamide]",,,2.7,
"C[C@@H](NC(=S)Nc1ccc(NC(=O)c2ccccc2F)cc1)c1ccc(Br)cc1 [Example 1005, N-(4-{3-[(1R)-1-(4-Bromo-phenyl)-ethyl]-thioureido}-phenyl)-2-fluoro-benzamide]",2.1,4.3,,
"CC(NC(=S)Nc1ccc(NC(=O)c2ccccc2F)cc1)c1ccc(Br)cc1 (stereo not shown) [Example 1102, N-(4-{3-[1-(4-Bromo-phenyl)-ethyl]-thioureido}-phenyl)-2-fluoro-benzamide]",1.7,0.2,,
"C[C@H](NC(=S)Nc1ccc(NC(=O)c2ccc(F)cc2)cc1)c1ccc(Br)cc1 [Example 1103, N-(4-{3-[(1S)-1-(4-Bromo-phenyl)-ethyl]-thioureido}-phenyl)-4-fluoro-benzamide]",3.4,0.47,,
"COc1ccccc1C(=O)Nc1ccc(NC(=S)N[C@@H](C)c2ccc(Br)cc2)cc1 [Example 1104, N-(4-{3-[(1S)-1-(4-Bromo-phenyl)-ethyl]-thioureido}-phenyl)-2-methoxy-benzamide]",4.9,0.09,,
"COc1ccccc1C(=O)Nc1ccc(NC(=S)N[C@H](C)c2ccc(Br)cc2)cc1 [Example 1105, N-(4-{3-[(1R)-1-(4-Bromo-phenyl)-ethyl]-thioureido}-phenyl)-2-methoxy-benzamide]",2.5,> 7.5,,
"CC(NC(=S)Nc1ccc(NC(=O)c2ccccc2F)cc1)c1ccc(C(F)(F)F)cc1F (stereo not shown) [Example 1106, 2-fluoro-N-(4-{[({1-[2-fluoro-4-(trifluoromethyl)phenyl]ethyl}amino)carbothioyl]amino}phenyl)benzamide]",,,> 7.5,IC50 ([1]; read-out: IC50 ug/ml HCMV): 1.1 µg/mL
"C[C@H](NC(=S)Nc1ccc(NC(=O)c2nccc3ccccc23)cc1)c1ccc(Br)cc1 [Example 1107, Isoquinoline-1-carboxylic acid (4-{3-[(1S)-1-(4-bromo-phenyl)-ethyl]-thioureido}-phenyl)-amide]",8.1,0.05,,
"C[C@H](NC(=S)Nc1ccc(NC(=O)c2cc3ccccc3cn2)cc1)c1ccc(Br)cc1 [Example 1108, Isoquinoline-3-carboxylic acid (4-{3-[(1S)-1-(4-bromo-phenyl)-ethyl]-thioureido}-phenyl)-amide]",2.3,0.05,,
"C[C@H](NC(=S)Nc1ccc(NC(=O)c2nccc3ccccc23)cc1)c1ccc(Cl)cc1 [Example 1109, Isoquinoline-1-carboxylic acid (4-{3-[(1S)-1-(4-chloro-phenyl)-ethyl]-thioureido) -phenyl)-amide]",,,0.03,IC50 ([1]; read-out: IC50 ug/ml HCMV): 4.4 µg/mL

# Reference: patent EP1137645B1, “ALPHA-METHYLBENZYL-CONTAINING THIOUREA INHIBITORS OF HERPES VIRUSES CONTAINING A […] GROUP” (Wyeth, priority 1998, dated 2000)
